# Measurements taken from US20110065749A1, “METHOD AND PHARMACEUTICAL COMPOSITION FOR TREATMENT OF MENTAL DISORDERS” (ACTIVE CO. LTD., priority 2008, published 2011).
# Where a name gives a salt, the structure may show the parent alone.
# Tests used:
# [1] = system: Attention Deficit Hyperactivity Disorder (ADHD); assay: Case 1: ADHD patient treated with Cephadol; format: in vivo, human
# Experimental: Case 1: Attention Deficit Hyperactivity Disorder (ADHD)
# Patient was a person, who had often shown violent behaviors. Quarreling with a bad-mannered person on the road and performing violent acts such as hitting had occurred once or twice a week. […] When they discontinued the medication with 75 mg/day Cephadol®, the symptom returned to the previous state. The effect of Cephadol® appeared in about two days, and the symptom returned to the original state in 5 days after discontinuation of the drug.
# Refractory Depression = assay: Case 2: refractory depression patient, HAMD; format: in vivo, human
# Source text: For evaluation of the state of depression, for example, Hamilton's rating scale for depression (HAMD) is available. The HAMD was developed by Max Hamilton in 1960 for the purpose of measuring the severity of a patient diagnosed with depression (Hamilton, M., Journal of Neurology, Neurosurgery & Psychiatry, 23-56-62 (1960) and Hamilton, M., “Development of rating scale for primary depressive illness”, British Journal of Social and Clinical Psychology, 6: 278-296 (1967)). In view of its high usefulness, it is a representative scale of evaluation for depression, widely used in clinical researches and practices. The 17 item version is used for clinical trials of antidepressants in Japan, whereas the 21 item version and the 24 item version are used in Europe or other countries. When the severity is calculated using Hamilton's rating scale for depression (HAMD), each item is evaluated with three grades of 0-2, or five grades of 0-4. For example, the case is diagnosed as severe where the point is 20 or higher and, as the point decreases, the symptom is diagnosed as being improved. Case 2: Refractory Depression Patient was a person, who was unresponsive to any combination of SSRIs, SNRIs, tricyclic antidepressants, and antianxiety agents in their respective maximum doses. The score of HAMD was 23 points. […] Increasing the dose of Cephadol® to 150 mg/day improved the score of HAMD to 3 points. The improvement lasted even after other antidepressants were removed. Even 3 months later, the score of HAMD was still 3 points. When the dose of Cephadol® was reduced to 75 mg/day, the score of HAMD became 13 points after one week.
# [2] = system: manic state of bipolar I disorder; assay: Case 3: manic-depressive illness patient; format: in vivo, human
# Experimental: Case 3: Manic-Depressive Illness Patient was a person, who had continuously been in a manic state of bipolar I disorder for over one month. An antiepileptic drug, or 1,200 mg of Limas®, was ineffective. Antipsychotic drugs were not usable due to significant side effects. […] When they discontinued the administration of Cephadol®, the manic state appeared after 5 days.
# Alzheimer-Type Dementia = assay: Case 4: Alzheimer-type dementia patient; format: in vivo, human; conditions: 50 mg before sleeping, added to donepezil hydrochloride
# Source text: Case 4: Alzheimer-Type Dementia
# [3] = system: Behavioral and Psychological Symptoms of Dementia; assay: Case 5: behavioral and psychological symptoms of dementia; format: in vivo, human; conditions: 100 mg/day
# Source text: Case 5: Effect on Behavioral and Psychological Symptoms of Dementia Patient was a person with dementia, who was irritable and easily excited, and had persecutory delusion.
# Alcoholism = assay: Case 6: alcoholism patient; format: in vivo, human
# Source text: Case 6: Alcoholism Patient was a office worker, who was drinking 1 to 2 liters of beer and 3 to 5 glasses of distilled spirit or whisky with water every day. They were drinking alcohol in daytime on Sundays, and suffering from a complication of liver dysfunction.
# Bulimia = assay: Case 8: bulimia (2) patient; format: in vivo, human; conditions: 150 mg/day
# Source text: Patient was a person, who had been suffering from bulimia. The bulimia persisted even after their marriage and childbearing.
# [4] = system: Panic Disorder and Multiple Personality Disorder; assay: Case 10: panic disorder and multiple personality disorder patient; format: in vivo, human
# Source text: Case 10: Panic Disorder and Multiple Personality Disorder
# Patient was a single person, who had been treated at several psychiatric hospitals. […] They report that the medicine is best to calm their mind, and easier to take than any other drugs that they have ever taken.
# Stiff Neck = assay: Case 14: seven subjects having stiff neck; format: in vivo, human; conditions: two 25 mg tablets two times a day, after two days, all seven subjects
# Experimental: Case 14: Stiff Neck Stiff neck is often observed as a subjective symptom, and is one of the most serious complaints in the daily life. Seven subjects having stiff neck were given two 25 mg tablets of Cephadol® two times a day (after dinner and before sleeping).
# Fibromyalgia [5] = assay: Case 16: fibromyalgia (2) patient; format: in vivo, human
# Source text: […] There were persistent systemic malaise, lassitude, depressed mood, sleeplessness, neck stiffness and systemic pain. Their score of depression on Hamilton D scale was 25 to 28. No hematological abnormality was detected. As a result of overall judgment based on examinations including a tender point examination, they were diagnosed as having fibromyalgia. They were unresponsive to tricyclic or tetracyclic antidepressants, SSRIs, SNRIs, and Moclobemide. Then, they continued the treatment with 60 mg/day fluoxetine. […] It was concluded that the onset of their depression was due to the systemic pain, and the depression was improved by the drastic improvement of the systemic pain.
# Fibromyalgia [6] = assay: Case 18: fibromyalgia (4) patient; format: in vivo, human
# Source text: Case 18: Fibromyalgia (4)
# A person (housewife) is a patient with depression, having received regular medical treatment since seven years ago. […] However, a diagnosis with autoimmune disease or inflammatory disease was negative from their blood test. Due to back pain and fingertip pain, they were unable to make household work, and it was painful for them to hold even a light object by hand. They had pain at 15 points among the 18 tender points of the whole body, and was diagnosed with fibromyalgia. […] They had to stay in bed all day long, and such a condition lasted for the long term.
# [7] = system: evoked potential of hypothalamus by vestibular nuclei stimulation; conditions: rat experiments; cited from earlier work
# [8] = system: nystagmus by experimental disorder of balance function; conditions: rabbit experiments; cited from earlier work
compound,measurement,setting,value
"OC(CCCN1CCCCC1)(c1ccccc1)c1ccccc1 [Cephadol®, 1,1-diphenyl-4-piperidine-1-ylbuthan-1-ol monohydrochloride]",side effects,[1]; 75 mg/day,no side effects
same,impulsivity,"[1]; 75 mg/day, on day seven",disappearance of the impulsivity
same,impulsivity,"[1]; 75 mg/day, on day two",reduction of impulsivity
same,time until the symptom returned to the original state after discontinuation of the drug,[1]; after discontinuation of 75 mg/day,5 days
same,depressive symptom,"Refractory Depression; 75 mg/day, HAMD 23 points before",significant improvement
same,score of HAMD,"Refractory Depression; 150 mg/day, 3 months later, other antidepressants removed",3 points
same,side effects,Refractory Depression; 75-150 mg/day,no side effects
same,score of HAMD,"Refractory Depression; dose increased to 150 mg/day, 23 points before",3 points
same,score of HAMD,"Refractory Depression; dose reduced to 75 mg/day, after one week",13 points
same,effect on the disease (manic state),[2]; 150 mg/day,significant amelioration of the disease
same,side effects,[2]; 150 mg/day,no side effects
same,time until the manic state appeared after discontinuation,[2]; after discontinuation of 150 mg/day,5 days
same,excitation caused by donepezil hydrochloride,Alzheimer-Type Dementia,reduced the excitation
same,mental stability,[3],significantly improved mental stability
same,nuisance behaviors caused by the persecutory delusion,[3],prevented their nuisance behaviors to other people
same,side effects,[3],no side effects
same,overdrinking,Alcoholism; 150 mg/day continued for three months,without any emergence of overdrinking
same,side effects,Alcoholism; 150 mg/day for three months,without any side effects
same,impulse to drink alcohol,"Alcoholism; 150 mg/day, on the next day",eliminated their impulse to drink alcohol
same,restlessness and anxiety,"Alcoholism; 150 mg/day, on the next day",eliminated their restlessness and anxiety
same,duration of the effect,Bulimia,more than two
same,overeating,Bulimia,stopped their overeating
same,side effects,Bulimia; more than two months,without any side effects
same,panic disorder,"[4]; 75 mg/day for one week, then 150 mg/day",significant improvement of panic disorder
same,transformation of personality,"[4]; 150 mg/day, previously 5 to 10 times a month",improved
same,antianxiety effect,[4]; 75-150 mg/day,strong antianxiety effect
same,stiff neck symptom,Stiff Neck,disappearance or a significant improvement of the symptom
same,score of Hamilton D scale,"Fibromyalgia [5]; 100 mg/day added to fluoxetine, 25 to 28 before",16
same,neck stiffness and systemic pain,"Fibromyalgia [5]; 100 mg/day for one week, added to 60 mg/day fluoxetine",reduced neck stiffness and systemic pain
same,activity of daily living,"Fibromyalgia [5]; 100 mg/day, after two weeks",improved drastically
same,malaise,Fibromyalgia [6]; 75 mg/day,significant improvement in malaise
same,mobility of large joints (objective),Fibromyalgia [6]; 125 mg/day,the mobility of large joints increased
same,back pain and fingertip pain,Fibromyalgia [6]; dose increased to 125 mg/day,improved the back pain and fingertip pain
same,evoked potential of hypothalamus by vestibular nuclei stimulation,[7],inhibited the evoked potential of hypothalamus by vestibular nuclei stimulation
same,emergence of nystagmus by experimental disorder of balance function,[8],inhibited the emergence of nystagmus by experimental disorder of balance function
